The Ki is the dissociation constant of the complex between target and ligand, obtained from inhibition or displacement. For orientation: EC50 means the concentration giving half of the maximal effect.

Where two headings read alike, the source gives them in different places.

One data set concerns the target T1, Bcl-2 protein (Homo sapiens, UniProt P10415, DELINS35-91DVEENRTEAPEGTESE, form not given).
T1 construct: fused on or other part: A short piece of the Bcl-xL (Q07817) loop replaces Bcl-2 loop residues 35-91; The C-terminal membrane anchor is absent
Put plainly: Bcl-2 binding affinity, fluorescence polarization with fluorescein-labeled BAX peptide. Particulars: Wang's equation, read-out: Target Binding Affinity Ki (Bcl-2).

For a further data set, the target named is Bcl-XL protein (Homo sapiens, UniProt Q07817). Put plainly: Bcl-XL binding affinity, fluorescence polarization with fluorescein-labeled BAD peptide. Particulars: Wang's equation, read-out: Target Binding Affinity Ki (Bcl-XL). On the technique in general: In fluorescence polarisation assays a small probe gives low polarisation when free and higher when bound to something large.
Bcl-XL protein, sequence (Q07817 with tags, fused parts or gaps DEL45-84): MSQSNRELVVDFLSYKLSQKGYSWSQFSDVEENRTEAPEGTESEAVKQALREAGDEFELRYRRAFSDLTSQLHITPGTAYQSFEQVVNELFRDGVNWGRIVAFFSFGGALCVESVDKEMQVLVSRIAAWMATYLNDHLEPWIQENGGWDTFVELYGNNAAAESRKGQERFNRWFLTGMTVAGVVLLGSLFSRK

Data set [1] has as its system NCI-H146 human small cell lung carcinoma cells. Description: Cellular efficacy in human tumor cell line (MTS viability assay). Type of data set: cell-based. Particulars: NCI-H146, 10% human serum, 48 hours. Put shortly:
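Cells plated at 50,000/well in medium with 10% human serum in place of FBS. Treated with 2-fold serial dilutions from 10 μM to 0.020 μM, in duplicate, at least 3 separate runs. Viable cells measured by MTS after 48 h of compound exposure.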
(Formazan colour is commonly taken as a measure of viable cells.)

Data set [2] is described as follows: Pharmacokinetic evaluation in rat. The data set is classed as in vivo. The conditions noted are these: male, Sprague-Dawley, plasma; for AUC / Cmax: 5 mg/kg, oral; for AUC(0-inf): single 5 mg/kg oral dose, Table 1, read-out: Pharmacokinetic area under the plasma concentration Curve (rat) AUC0-∞. Put shortly:
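Male Sprague-Dawley rats (n=3/group) received a single 2 mg/kg IV (jugular slow bolus) or 5 mg/kg oral gavage dose in 10% DMSO/PEG-400; tail-vein plasma sampled to 24 h. Acetonitrile-precipitated plasma quantified by LC-MS/MS (LOQ 0.01 μg/mL); AUC0-∞ by linear trapezoidal rule plus Ct/β extrapolation.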

The test system of a further data set is HCT116 cells. Description: Aurora inhibitors in combination with ABT-263, cell viability (CellTiter-GLO). Type of data set: cell-based, human. The conditions noted are these: 1 μM ABT-263, 72 hours; MLN8054 at Aurora A-selective concentrations (<5 μM). On the procedure:
24 hours post-transfection, cells were treated with ABT-263 in dose response, and cell viability was determined 72 hours after the addition of ABT-263. […] MLN8054 (FIG. 9C) or AZD1152 (FIG. 9D) were tested in combination with DMSO or 1 μM ABT-263 in HCT116 cells. Cell viability was determined 72 hours after treatment. […] EJ1 (FIG. 9F) or HCT116 (FIG. 9G) cells were transfected with a luciferase siRNA or the same set of siRNAs against Bcl-2, Bcl-XL, or Mcl-1 siRNAs as in FIG. 9E. 24 hours post-transfection, cells were treated with different amounts of AZD1152. Cell viability was determined 72 hours after exposure to AZD1152. […] Cell viability was determined 72 hours post-transfection. In all figures, cell viability was expressed as the percentage of untransfected, DMSO-treated control cells. The red viability curve represents a synergistic combination.
(§1) Generally, cells were seeded at >90% viability (as determined by trypan blue exclusion) into 96-well plates overnight, treated with compounds or siRNAs for indicated duration, and the overall cell viability was determined by measuring luminescence.
A general note: In ATP-based viability assays light output follows the ATP content of the culture.

For data set [3], the system named is tumor cell lines (D54MG, NCI-H460, A549, PC3, EJ1, HCT116, DLD1, SW620, 786-O). Put plainly: Combination screen of VX-680, cell viability with Bliss additivism analysis. The data set is classed as cell-based, human. The conditions noted are these: VX-680 with ABT-263 in dose-response; viability 3 days after exposure. On the procedure:
Cell viability was determined 3 days after exposure to the combination regimens. Synergy or antagonism of drug combinations was determined using the Bliss additivism model of drug-drug interactions (See, Berenbaum, M. C., Cancer Res 35, 269-335 (1981)). The value in excess of Bliss additivism for each dose was determined for all combinations and defined as follows: >15=synergistic, 0-15=no interaction, <−15=antagonistic. These values are expressed in a heatmap using SPOTFIRE® (TIBCO®) data analysis software where synergy is indicated in red, no interaction in gray, and antagonism in blue. […] These values are not applicable for Bliss analysis and were excluded from the heatmap. Compounds tested in combination are shown at the right. The targets/mechanisms of action of each of these agents and the corresponding dose responses for the combination screen is summarized in Table A in EXAMPLE 40.
as §1
Combined response scores greater than 15 were considered synergistic. […]

In a further data set the test system is mantle cell lymphoma. Put plainly: Oral efficacy of EXAMPLE 1 in combination therapy, antitumorigenesis on mantle cell lymphoma. The data set is classed as in vivo. The conditions noted are these: without EXAMPLE 1.
A further data set concerns B-cell lymphoma. Put plainly: Oral efficacy of EXAMPLE 1 in combination therapy, antitumorigenesis on B-cell lymphoma. The data set is classed as in vivo. Particulars: without EXAMPLE 1.
The mark [4] stands for this setting: Table 1, read-out: NCI-H146 Cellular Efficacy EC50.
[5] abbreviates: Table 2, read-out: NCI-H146 Cellular Efficacy H146, EC50.
Setting [6] is: Table 2, read-out: Pharmacokinetic area under the plasma concentration curve (rat) AUC.
Where [7] appears, read: Table 2, read-out: Pharmacokinetic peak plasma concentration (rat) Cmax.

T1 sequence (P10415 with tags, fused parts or gaps with the stated changes): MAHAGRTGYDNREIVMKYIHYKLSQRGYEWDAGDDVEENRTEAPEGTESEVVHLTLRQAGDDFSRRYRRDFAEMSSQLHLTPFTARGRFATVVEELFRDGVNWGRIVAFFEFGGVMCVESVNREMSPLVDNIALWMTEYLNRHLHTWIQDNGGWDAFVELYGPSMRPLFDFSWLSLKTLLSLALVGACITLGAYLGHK
Protocol for Bcl-2 protein: Binding affinity of compounds having formula (II) to Bcl-2 protein is indicia of their inhibition of the activity of this protein.
(§2) Ki values shown in the tables below were determined using Wang's equation (Wang Z X., An Exact Mathematical Expression For Describing Competitive Binding Of Two Different Ligands To A Protein Molecule. FEBS Lett. 1995; 360:111-4)).
Protocol for Bcl-XL protein: A mixture comprising 125 μL per well of assay buffer (20 mM phosphate buffer (pH 7.4), 1 mM EDTA, 50 mM NaCl, 0.05% PF-68), 6 nM of Bcl-XL protein (prepared as described in Science 1997, 275, 983-986), 1 nM fluorescein-labeled BAD peptide (prepared in-house) and the DMSO solution of the compound was shaken for 2 minutes and placed in a LJL Analyst (LJL Bio Systems, CA). A negative control (DMSO, 15 nM BAD peptide, assay buffer) and a positive control (DMSO, 1 nM BAD peptide, 6 nM Bcl-XL, assay buffer) were used to determine the range of the assay. Polarization was measured at room temperature using a continuous Fluorescein lamp (excitation 485 nm, emission 530 nm). Percentage of inhibition was determined by (1-((mP value of well-negative control)/range))×100%.
as §2

Turning to `CC(C)N(C)CC[C@H](CSc1ccccc1)Nc1ccc(S(=O)(=O)NC(=O)c2ccc(N3CCN(CC4=C(c5ccc(Cl)cc5)CCCC4)CC3)cc2)cc1S(=O)(=O)C(F)(F)F` [Example 33, N-(4-(4-((2-(4-chlorophenyl)cyclohex-1-en-1-yl)methyl)piperazin-1-yl)benzoyl)-4-(((1R)-3-(isopropyl(methyl)amino)-1-((phenylsulfanyl)methyl)propyl)amino)-3-((trifluoromethyl)sulfonyl)benzenesulfonamide], the Ki at Bcl-2 protein and at Bcl-XL protein was not above 1 nM in each case. Further, the EC50 in data set [1] (setting [4]) was 37.8 nM; in data set [1] (Table 3, read-out: NCI-H146 Cellular Efficacy H146 EC50) it was 38 nM. For the same compound, the AUC in data set [2] (Table 3, read-out: Pharmacokinetic area under the plasma concentration Curve (rat) AUC) worked out at 3.01 µM·h. In addition, the Cmax in data set [2] (Table 3, read-out: Pharmacokinetic peak plasma concentration (rat) Cmax) amounted to 129 nM. Also, the AUC(0-inf) in data set [2] was 3.01 µM·h.

For the compound `CC1(C)CCC(CN2CCN(c3ccc(C(=O)NS(=O)(=O)c4ccc(N[C@H](CCN5CCCC5)CSc5ccccc5)c(S(=O)(=O)C(F)(F)F)c4)cc3)CC2)=C(c2ccc(Cl)cc2)C1` [Example 34, N-(4-(4-((2-(4-chlorophenyl)-4,4-dimethylcyclohex-1-en-1-yl)methyl)piperazin-1-yl)benzoyl)-4-(((1R)-1-((phenylsulfanyl)methyl)-3-(pyrrolidin-1-yl)propyl)amino)-3-((trifluoromethyl)sulfonyl)benzenesulfonamide], the inhibition constant (Ki) at Bcl-2 protein and at Bcl-XL protein was not above 1 nM throughout. The half-maximal effective concentration (EC50) in data set [1] (setting [4]) was found to be 20 nM. The AUC(0-inf) in data set [2] was found to be 11.1 µM·h.

For `O=C(NS(=O)(=O)c1ccc(N[C@H](CCN2CCCC2)CSc2ccccc2)c(S(=O)(=O)C(F)(F)Cl)c1)c1ccc(N2CCN(CC3=C(c4ccc(Cl)cc4)CCCC3)CC2)cc1` [Example 35, 3-((chloro(difluoro)methyl)sulfonyl)-N-(4-(4-((2-(4-chlorophenyl)cyclohex-1-en-1-yl)methyl)piperazin-1-yl)benzoyl)-4-(((1R)-1-((phenylsulfanyl)methyl)-3-(pyrrolidin-1-yl)propyl)amino)benzenesulfonamide], the Ki on Bcl-2 protein and at Bcl-XL protein was not above 1 nM in each case. Also, in data set [1] (setting [4]), the EC50 was 7.6 nM. The AUC(0-inf) in data set [2] came out at 1.26 µM·h.

In the case of `CC1(C)CCC(CN2CCN(c3ccc(C(=O)NS(=O)(=O)c4ccc(N[C@H](CCN5C[C@@H]6C[C@H]5CO6)CSc5ccccc5)c(S(=O)(=O)C(F)(F)F)c4)cc3)CC2)=C(c2ccc(Cl)cc2)C1` [Example 36, N-(4-(4-((2-(4-chlorophenyl)-4,4-dimethylcyclohex-1-en-1-yl)methyl)piperazin-1-yl)benzoyl)-4-(((1R)-3-((1S,4S)-2-oxa-5-azabicyclo[2.2.1]hept-5-yl)-1-((phenylsulfanyl)methyl)propyl)amino)-3-((trifluoromethyl)sulfonyl)benzenesulfonamide], the inhibition constant Ki on Bcl-2 protein and on Bcl-XL protein was not above 1 nM in each case. In addition, in data set [1] (setting [4]), the EC50 is 24.2 nM. The AUC(0-inf) in data set [2] amounted to 4.22 µM·h.

`CN(C)CC[C@H](CSc1ccccc1)Nc1ccc(S(=O)(=O)NC(=O)c2ccc(N3CCN(CC4=C(c5ccc(Cl)cc5)CC(C)(C)CC4)CC3)cc2)cc1S(=O)(=O)C(F)(F)F` [Example 37, N-(4-(4-((2-(4-chlorophenyl)-4,4-dimethylcyclohex-1-en-1-yl)methyl)piperazin-1-yl)benzoyl)-4-(((1R)-3-(dimethylamino)-1-((phenylsulfanyl)methyl)propyl)amino)-3-((trifluoromethyl)sulfonyl)benzenesulfonamide]: the inhibition constant Ki at Bcl-2 protein and on Bcl-XL protein was not above 1 nM each time. Further, the concentration giving a half-maximal response (EC50) in data set [1] (setting [4]) is 17.5 nM. Also, in data set [2], the AUC(0-inf) is 7.3 µM·h.

For `CN(C)CC[C@H](CSc1ccccc1)Nc1ccc(S(=O)(=O)NC(=O)c2ccc(N3CCN(Cc4ccccc4-c4ccc(Cl)cc4)CC3)cc2)cc1S(=O)(=O)C(F)(F)F` [Example 38, N-(4-(4-((4′-chloro(1,1′-biphenyl)-2-yl)methyl)-1-piperazinyl)benzoyl)-4-(((1R)-3-(dimethylamino)-1-((phenylsulfanyl)methyl)propyl)amino)-3-((trifluoromethyl)sulfonyl)benzenesulfonamide], the Ki on Bcl-2 protein and on Bcl-XL protein was not above 1 nM each time. Moreover, the half-maximal effective concentration (EC50) in data set [1] (setting [4]) came to 39.4 nM; in data set [1] (setting [5]), 39 nM. Moreover, the AUC in data set [2] (setting [6]) is 0.665 µM·h. Moreover, the Cmax in data set [2] (setting [7]) was 72 nM. Besides, the AUC(0-inf) in data set [2] amounted to 0.67 µM·h.

Take `O=C(NS(=O)(=O)c1ccc(N[C@H](CCN2CCOCC2)CSc2ccccc2)c(S(=O)(=O)C(F)(F)F)c1)c1ccc(N2CCN(Cc3ccccc3-c3ccc(Cl)cc3)CC2)cc1` [Example 39, N-(4-(4-((4′-chloro(1,1′-biphenyl)-2-yl)methyl)-1-piperazinyl)benzoyl)-4-(((1R)-3-(4-morpholinyl)-1-((phenylsulfanyl)methyl)propyl)amino)-3-((trifluoromethyl)sulfonyl)benzenesulfonamide]: the inhibition constant (Ki) at Bcl-2 protein and on Bcl-XL protein was not above 1 nM throughout. Besides, the concentration giving a half-maximal response (EC50) in data set [1] (setting [4]) is 82.7 nM; in data set [1] (setting [5]), 83 nM. For the same compound, the AUC in data set [2] (setting [6]) was found to be 1.66 µM·h. The Cmax in data set [2] (setting [7]) was found to be 290 nM. In data set [2], the AUC(0-inf) is 1.66 µM·h.

As to `O=C(O)c1ccc(Nc2ncc3c(n2)-c2ccc(Cl)cc2C(c2c(F)cccc2F)=NC3)cc1` [MLN8054], the “synergy in combination with ABT-263 (cell viability)” value in the data set with HCT116 cells was “no synergy”.

With `Cc1cc(Nc2cc(N3CCN(C)CC3)nc(Sc3ccc(NC(=O)C4CC4)cc3)n2)[nH]n1` [VX-680, cyclopropane carboxylic acid of {4-[4-(4-methyl-piperazin-1-yl)-6-(5-methyl-2H-pyrazol-3-ylamino)-pyrimidin-2-ylsulphanyl]-phenyl}-amide], the “Bliss analysis of cell viability, combination with ABT-263” value in data set [3] is reported as “synergistic (>15=synergistic)”.

On to `CC(C)C[C@H](NC(=O)[C@H](Cc1ccccc1)NC(=O)c1cnccn1)B(O)O` [bortexomib, reference compound], for which, in the data set with mantle cell lymphoma, the “tumor regressions, agent alone” value is listed as “no tumor regressions”.

As to `CO[C@H]1C[C@@H]2CC[C@@H](C)[C@@](O)(O2)C(=O)C(=O)N2CCCC[C@H]2C(=O)O[C@H]([C@H](C)C[C@@H]2CC[C@@H](O)[C@H](OC)C2)CC(=O)[C@H](C)/C=C(\C)[C@@H](O)[C@@H](OC)C(=O)[C@H](C)C[C@H](C)/C=C/C=C/C=C/1C` [rapamycin, reference compound], the “tumor regressions, agent alone” value in the data set on B-cell lymphoma is reported as 10%.

Turning to “rituximab: antibody, RITUXAN® (rituximab) [reference compound]”, the “tumor regressions, agent alone” value in the data set on B-cell lymphoma is on record as “no tumor regressions”.

(Values after US8624027B2, “Combination therapy for treating cancer and diagnostic assays for use therein” (AbbVie Inc., priority 2005, dated 2014).)
